Measurements: PMC9959048, “Lipidation of Naturally Occurring α-Helical Antimicrobial Peptides as a Promising Strategy for Drug Design” (International Journal of Molecular Sciences, 2023)
In brackets after ≈: the same amount, converted by molar mass. Where two headings read alike, the source gives them in different places. Residues, ends and D or L forms follow the SMILES beside them. *: point of attachment. Palmitoyl = CCCCCCCCCCCCCCCC(=O)*; Myristoyl = CCCCCCCCCCCCCC(=O)*; Lauroyl = CCCCCCCCCCCC(=O)*; Decanoyl = CCCCCCCCCC(=O)*

Tests used:
[1] = system: S. aureus PCM2054; assay type: cell-based, Staphylococcus aureus
Description: (§1) The evaluation of the antimicrobial activity of the synthesized lipopeptides was performed against the following reference bacterial and fungal strains: Staphylococcus aureus PCM 1650, Staphylococcus aureus PCM 2054, Staphylococcus epidermidis PCM 521, Staphylococcus epidermidis PCM 2118, Escherichia coli PCM 2057, Candida albicans PCM 2566, Candida glabrata CCM 8270, Candida krusei CCM 8271, Candida parapsilosis CCM 8260.
(§2) For the initial cultivation of the bacteria and fungi, Luria-Bertani broth (LB, Biomaxima, Lublin, Poland) and Sabouraud Dextrose broth (SB, Biomaxima, Lublin, Poland) were used, respectively. Antimicrobial properties of the compounds were analyzed through the determination of MIC (minimal inhibitory concentrations) by my means of the serial micro-dilution technique according to the guidelines of Clinical & Laboratory Standard Institute (CLSI) established for aerobic bacteria and yeasts.
(§3) According to the procedures, Mueller–Hinton broth (MHB) was used as the working medium for the analysis of the bacterial susceptibility, while RPMI-1640 (with L-glutamine, without sodium bicarbonate) growth medium buffered with MOPS (morpholinepropanesulfonic acid) and supplemented with 2% glucose was used for the experiments with the fungi.
(§4) The experiments were carried out for 24 h at 37 and 35 °C for the bacteria and fungi, respectively. Then, the absorbance was measured at 600 nm for each well of the 96-well plate using a microplate reader (Sunrise TM, Tecan Trading AG, Männedorf, Switzerland). Based on the obtained results, the degree of inhibition of the growth of microorganisms (expressed in %) in the presence of the tested compounds range was determined with respect to the control probes. Inoculated wells without peptide were treated as a positive control (100% growth), and the wells containing working medium only were defined as a negative control (0% growth). All measurements were repeated in triplicate.

[2] = system: S. epidermidis PCM2118; assay type: cell-based, Staphylococcus epidermidis
Description: as §1, §2, §3, §4

[3] = system: S. epidermidis PCM521; assay type: cell-based, Staphylococcus epidermidis
Description: as §1, §2, §3, §4

[4] = system: C. krusei CCM8271; assay type: cell-based, Candida krusei
Description: as §1, §2, §3, §4

[5] = system: E. coli PCM2057; assay type: cell-based, Escherichia coli
Description: as §1, §2, §3, §4

[6] = system: C. glabrata CCM8270; assay type: cell-based, Candida glabrata
Description: as §1, §2, §3, §4

[7] = system: C. albicans PCM2566; assay type: cell-based, Candida albicans
Description: as §1, §2, §3, §4

[8] = system: C. parapsilosis CCM 8260; assay type: cell-based, Candida parapsilosis
Description: as §1, §2, §3, §4

[9] = system: S. aureus PCM1650; assay type: cell-based, Staphylococcus aureus
Description: as §1, §2, §3, §4

[10] = Mueller–Hinton broth, inoculum 5 × 10^5 CFU/mL, 24 h, 37 °C, absorbance 600 nm, triplicate
[11] = RPMI-1640 with MOPS and 2% glucose, inoculum 5 × 10^3 CFU/mL, 24 h, 35 °C, absorbance 600 nm, triplicate

| Compound | MIC, S. aureus PCM2054 ([1]; PCM2054, 24 h) [µg/mL] | MIC, S. epidermidis PCM2118 ([2]; PCM2118, 24 h) [µg/mL] | MIC, S. epidermidis PCM521 ([3]; PCM521, 24 h) [µg/mL] | MIC, C. krusei CCM8271 ([4]; CCM8271, 24 h) [µg/mL] | MIC, E. coli PCM2057 ([5]; PCM2057, 24 h) [µg/mL] | MIC, C. glabrata CCM8270 ([6]; CCM8270, 24 h) [µg/mL] | MIC, C. albicans PCM2566 ([7]; PCM2566, 24 h) [µg/mL] | MIC, C. parapsilosis CCM 8260 ([8]; CCM 8260, 24 h) [µg/mL] | MIC, S. aureus PCM2054 [1, 10] [µg/mL] | MIC, S. epidermidis PCM2118 [2, 10] [µg/mL] | MIC, S. epidermidis PCM521 [3, 10] [µg/mL] | MIC, C. krusei CCM8271 [4, 11] [µg/mL] | MIC, E. coli PCM2057 [5, 10] [µg/mL] | MIC, C. glabrata CCM8270 [6, 11] [µg/mL] | MIC, C. albicans PCM2566 [7, 11] [µg/mL] | MIC, C. parapsilosis CCM 8260 [8, 11] [µg/mL] | MIC, S. aureus PCM1650 ([9]; PCM1650, 24 h) [µg/mL] | MIC, S. aureus PCM1650 [9, 10] [µg/mL] |
| --- | --- | --- | --- | --- | --- | --- | --- | --- | --- | --- | --- | --- | --- | --- | --- | --- | --- | --- |
| CCCCCCCCCC(=O)N[C@H](C(=O)N[C@@H](CCCCN)C(=O)N[C@@H](CCCCN)C(=O)N[C@H](C(=O)N[C@@H](CC(C)C)C(=O)N[C@@H](CO)C(=O)N[C@@H](CCCCN)C(=O)N[C@H](C(=O)N[C@@H](CCCCN)C(=O)N[C@@H](CCCCN)C(=O)N[C@@H](CC(C)C)C(=O)N[C@@H](CC(C)C)C(=O)N[C@@H](CCCCN)C(N)=O)[C@@H](C)CC)[C@@H](C)CC)[C@@H](C)CC [C10-LK6] (Decanoyl-IKKILSKIKKLLK-NH2) | 50 (≈ 29.3 µM) | 6.25 (≈ 3.66 µM) | 6.25 (≈ 3.66 µM) | 6.25 (≈ 3.66 µM) | >50 | 6.25 (≈ 3.66 µM) | 6.25 (≈ 3.66 µM) | 6.25 (≈ 3.66 µM) | – | – | – | – | – | – | – | – | – | – |
| CCCCCCCCCCCC(=O)N[C@@H](CCCCN)C(=O)N[C@@H](CCCNC(=N)N)C(=O)N[C@@H](Cc1ccccc1)C(=O)N[C@@H](CCCCN)C(=O)N[C@@H](CCCCN)C(=O)N[C@@H](Cc1ccccc1)C(=O)N[C@@H](Cc1ccccc1)C(=O)N[C@@H](CCCCN)C(=O)N[C@@H](CCCCN)C(=O)N[C@@H](CC(C)C)C(=O)N[C@@H](CCCCN)C(N)=O [C12-ATRA-1] (Lauroyl-KRFKKFFKKLK-NH2) | – | – | – | – | – | – | – | – | 3.9 (≈ 2.32 µM) | 3.13 (≈ 1.86 µM) | 3.13 (≈ 1.86 µM) | 2.5 (≈ 1.49 µM) | 31.25 (≈ 18.6 µM) | 6.25 (≈ 3.72 µM) | 2.5 (≈ 1.49 µM) | 12.5 (≈ 7.44 µM) | – | – |
| CCCCCCCCCCCC(=O)N[C@H](C(=O)N[C@@H](CCCCN)C(=O)N[C@@H](CCCCN)C(=O)N[C@H](C(=O)N[C@@H](CC(C)C)C(=O)N[C@@H](CO)C(=O)N[C@@H](CCCCN)C(=O)N[C@H](C(=O)N[C@@H](CCCCN)C(=O)N[C@@H](CCCCN)C(=O)N[C@@H](CC(C)C)C(=O)N[C@@H](CC(C)C)C(=O)N[C@@H](CCCCN)C(N)=O)[C@@H](C)CC)[C@@H](C)CC)[C@@H](C)CC [C12-LK6] (Lauroyl-IKKILSKIKKLLK-NH2) | 50 (≈ 28.8 µM) | 6.25 (≈ 3.6 µM) | 25 (≈ 14.4 µM) | 6.25 (≈ 3.6 µM) | >50 | 3.13 (≈ 1.8 µM) | 6.25 (≈ 3.6 µM) | 6.25 (≈ 3.6 µM) | – | – | – | – | – | – | – | – | 25 (≈ 14.4 µM) | – |
| CCCCCCCCCCCC(=O)N[C@H](C(=O)N[C@@H](CC(N)=O)C(=O)N[C@@H](Cc1c[nH]c2ccccc12)C(=O)N[C@@H](CCCCN)C(=O)N[C@@H](CCCCN)C(=O)N[C@H](C(=O)N[C@@H](CC(C)C)C(=O)NCC(=O)N[C@@H](CCCCN)C(=O)N[C@H](C(=O)N[C@H](C(=O)N[C@@H](CCCCN)C(=O)N[C@H](C(=O)N[C@@H](C)C(=O)N[C@@H](CCCCN)C(N)=O)C(C)C)[C@@H](C)CC)[C@@H](C)CC)C(C)C)C(C)C [C12-LL-I] (Lauroyl-VNWKKVLGKIIKVAK-NH2) | – | – | – | – | – | – | – | – | 12.5 (≈ 6.56 µM) | 6.25 (≈ 3.28 µM) | 12.5 (≈ 6.56 µM) | 12.5 (≈ 6.56 µM) | >50 | 12.5 (≈ 6.56 µM) | >50 | 3.13 (≈ 1.64 µM) | – | 12.5 (≈ 6.56 µM) |
| CCCCCCCCCCCCCC(=O)N[C@H](C(=O)N[C@@H](CCCCN)C(=O)N[C@@H](CCCCN)C(=O)N[C@H](C(=O)N[C@@H](CC(C)C)C(=O)N[C@@H](CO)C(=O)N[C@@H](CCCCN)C(=O)N[C@H](C(=O)N[C@@H](CCCCN)C(=O)N[C@@H](CCCCN)C(=O)N[C@@H](CC(C)C)C(=O)N[C@@H](CC(C)C)C(=O)N[C@@H](CCCCN)C(N)=O)[C@@H](C)CC)[C@@H](C)CC)[C@@H](C)CC [C14-LK6] (Myristoyl-IKKILSKIKKLLK-NH2) | 50 (≈ 28.4 µM) | 25 (≈ 14.2 µM) | 25 (≈ 14.2 µM) | 6.25 (≈ 3.55 µM) | >50 | 12.5 (≈ 7.09 µM) | 6.25 (≈ 3.55 µM) | 6.25 (≈ 3.55 µM) | – | – | – | – | – | – | – | – | – | – |
| CCCCCCCCCCCCCC(=O)N[C@H](C(=O)N[C@@H](CC(N)=O)C(=O)N[C@@H](Cc1c[nH]c2ccccc12)C(=O)N[C@@H](CCCCN)C(=O)N[C@@H](CCCCN)C(=O)N[C@H](C(=O)N[C@@H](CC(C)C)C(=O)NCC(=O)N[C@@H](CCCCN)C(=O)N[C@H](C(=O)N[C@H](C(=O)N[C@@H](CCCCN)C(=O)N[C@H](C(=O)N[C@@H](C)C(=O)N[C@@H](CCCCN)C(N)=O)C(C)C)[C@@H](C)CC)[C@@H](C)CC)C(C)C)C(C)C [C14-LL-I] (Myristoyl-VNWKKVLGKIIKVAK-NH2) | – | – | – | – | – | – | – | – | >50 | 12.5 (≈ 6.46 µM) | 12.5 (≈ 6.46 µM) | 12.5 (≈ 6.46 µM) | >50 | 12.5 (≈ 6.46 µM) | >50 | 3.13 (≈ 1.62 µM) | – | – |
| CCCCCCCCCCCCCCCC(=O)N[C@H](C(=O)N[C@@H](CCCCN)C(=O)N[C@@H](CCCCN)C(=O)N[C@H](C(=O)N[C@@H](CC(C)C)C(=O)N[C@@H](CO)C(=O)N[C@@H](CCCCN)C(=O)N[C@H](C(=O)N[C@@H](CCCCN)C(=O)N[C@@H](CCCCN)C(=O)N[C@@H](CC(C)C)C(=O)N[C@@H](CC(C)C)C(=O)N[C@@H](CCCCN)C(N)=O)[C@@H](C)CC)[C@@H](C)CC)[C@@H](C)CC [C16-LK6] (Palmitoyl-IKKILSKIKKLLK-NH2) | >50 | 50 (≈ 27.9 µM) | 50 (≈ 27.9 µM) | 25 (≈ 14 µM) | >50 | >50 | 6.25 (≈ 3.49 µM) | 50 (≈ 27.9 µM) | – | – | – | – | – | – | – | – | – | – |
| CCCCCCCCCCCCCCCC(=O)N[C@H](C(=O)N[C@@H](CC(N)=O)C(=O)N[C@@H](Cc1c[nH]c2ccccc12)C(=O)N[C@@H](CCCCN)C(=O)N[C@@H](CCCCN)C(=O)N[C@H](C(=O)N[C@@H](CC(C)C)C(=O)NCC(=O)N[C@@H](CCCCN)C(=O)N[C@H](C(=O)N[C@H](C(=O)N[C@@H](CCCCN)C(=O)N[C@H](C(=O)N[C@@H](C)C(=O)N[C@@H](CCCCN)C(N)=O)C(C)C)[C@@H](C)CC)[C@@H](C)CC)C(C)C)C(C)C [C16-LL-I] (Palmitoyl-VNWKKVLGKIIKVAK-NH2) | – | – | – | – | – | – | – | – | >50 | 25 (≈ 12.7 µM) | 25 (≈ 12.7 µM) | >50 | >50 | >50 | >50 | 12.5 (≈ 6.37 µM) | – | – |
| CC[C@H](C)[C@H](N)C(=O)N[C@@H](CCCCN)C(=O)N[C@@H](CCCCN)C(=O)N[C@H](C(=O)N[C@@H](CC(C)C)C(=O)N[C@@H](CO)C(=O)N[C@@H](CCCCN)C(=O)N[C@H](C(=O)N[C@@H](CCCCN)C(=O)N[C@@H](CCCCN)C(=O)N[C@@H](CC(C)C)C(=O)N[C@@H](CC(C)C)C(=O)N[C@@H](CCCCN)C(N)=O)[C@@H](C)CC)[C@@H](C)CC [LK6, reference compound] (H-IKKILSKIKKLLK-NH2) | >50 | 6.25 (≈ 4.03 µM) | 6.25 (≈ 4.03 µM) | 12.5 (≈ 8.05 µM) | >50 | 31.25 (≈ 20.1 µM) | 50 (≈ 32.2 µM) | 12.5 (≈ 8.05 µM) | – | – | – | – | – | – | – | – | – | – |
